Where two headings read alike, the source gives them in different places.
Assays:
BRD4 (BD1, 2) = BRD4 (BD1, 2) (Homo sapiens, UniProt O60885); test: BROMOscan competitive ligand binding assay, BRD4 (BD1, 2)
[1] = target: T1, full-length recombinant human BRD4 (Homo sapiens, UniProt O60885); test: AlphaScreen assay, full-length BRD4 with acetylated histone H4 peptide; format: binding; conditions: full-length BRD4, acetylated H4 peptide (1-21) ligand
T1 construct: His-tag (N); purchased Reaction Biology RD-21-153; host or cells: Sf9 insect cells
Procedure: AlphaScreen® assay, an […], was conducted by following manufacturer's protocol (PerkinElmer, Waltham, MA) at Reaction Biology (Malvern, PA) utilizing full-length recombinant human BRD4 corresponding to amino acid position 2-1362 (NCBI Reference Sequence: NM_058243) expressed in Sf9 insect cells with an N-terminal His-tag (Reaction Biology Catalog No. RD-21-153), and histone H4 peptide (1-21) containing acetylated lysine residues at positions 5, 8, 12 and 16 as the ligand. […] H4 ligand peptide was then added and the mixture was incubated for another 30 minutes at room temperature. Streptavidin-coated donor beads and Ni acceptor beads were then added, and the mixture was incubated for additional 60 minutes. Fluorescent measurements (Ex/Em=680/520-620 nm) were taken and the data were fitted to the Hill equation with variable slopes to obtain IC50 values.

MV4-11 cells = test: MV4-11 cytotoxicity assay (CellTiter-Glo); format: cell-based; conditions: Homo sapiens, 72 hr incubation
Procedure: Cell lines: The MV4-11 cell line were obtained from American Type Culture Collection (ATCC, Manassas, VA, USA) and cultured in RPMI 1640 (Invitrogen 11879020) culture medium supplemented with 10% fetal bovine serum and 100 units/mL Penicillin, 100 μg/mL Streptomycin and maintained in a 37° C., 5% CO2/95% humidified air incubator.
Cytotoxicity Assay: MV4-11 cells were cultured as described above, and plated in 1536-well white solid tissue culture plates using a Multidrop Combi peristaltic dispenser (ThermoFisher, Waltham, MA) at a density of 500 cells/well in 5 μL of RPMI 1640 (Invitrogen 11879020) culture medium supplemented with 10% fetal bovine serum and 100 units/mL Penicillin, 100 μg/mL Streptomycin. A 1536-well pintool dispenser outfitted with 20 nL pins (Wako Automation, San Diego, CA) was used to transfer 23 nL of compound in DMSO to the 1536-well assay plates. After 72 hr incubation at 37° C., 2.5 μL of CellTiter-Glo (Promega) was dispensed into each well using a BioRAPTR FRD dispenser (Beckman Coulter, Brea, CA). Plates were incubated at room temperature for 10 minutes, transferred to a ViewLux microplate imager (Perkin Elmer, Waltham, MA) and the ATP-coupled luminescence was measured using a 1 second exposure.

[2] = system: acute myeloid leukemia cell line Kasumi-1; test: Kasumi-1 cell viability assay (CellTiter-Blue); format: cell-based; conditions: Homo sapiens, read-out: Kasumi-1 IC50
Procedure: Cell viability assay: Cell viability assay was conducted to obtain G150, the compound concentration resulting in 50% growth inhibition, using an acute myeloid leukemia cell line Kasumi-1 (ATCC® CRL-2724™) (ATCC, Manassas, VA). Briefly, cells were seeded on a 96-well flat-bottom cell culture plate at the density of 30,000 cells per well (MV-4-11) or 10,000 cells per well (Kasumi-1) in RPMI supplemented with 10% fetal bovine serum and L-glutamine plus penicillin and streptomycin. Cells were maintained at 37° C. with 5% CO2 for 24 hours then exposed to a given compound at either 11 or 21 concentrations ranging from 0 μM to 20 μM in a 150 μL volume in the presence of 0.2% dimethyl sulfoxide, the solvent used in serial dilution of the compound. The exposure was maintained for approximately 72 hours and the cell viability was measured using CellTiter-Blue® (Promega, Madison, WI) according to manufacturer's instruction. GI50 values were calculated using a four-parameter dose-response model in Graph Pad Prism (La Jolla, CA).

CBP = CBP (Homo sapiens, UniProt Q92793); test: BROMOscan competitive ligand binding assay, CBP
Sequence of CBP (Q92793 1085-1192 limits assumed): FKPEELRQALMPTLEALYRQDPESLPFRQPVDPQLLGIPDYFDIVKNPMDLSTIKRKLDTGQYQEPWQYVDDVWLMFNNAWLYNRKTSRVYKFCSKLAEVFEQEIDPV

P300 = target: T2, P300 (Homo sapiens, UniProt Q09472); test: BROMOscan competitive ligand binding assay, P300
T2 sequence (Q09472 1049-1156 limits assumed): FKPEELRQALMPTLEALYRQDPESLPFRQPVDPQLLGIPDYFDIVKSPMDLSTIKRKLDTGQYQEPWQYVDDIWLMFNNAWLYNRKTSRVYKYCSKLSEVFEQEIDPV

BRD2 (BD1) = BRD2 (BD1) (Homo sapiens, UniProt P25440); test: BROMOscan competitive ligand binding assay, BRD2 (BD1)
Sequence of BRD2 (BD1) (P25440 74-180 limits assumed): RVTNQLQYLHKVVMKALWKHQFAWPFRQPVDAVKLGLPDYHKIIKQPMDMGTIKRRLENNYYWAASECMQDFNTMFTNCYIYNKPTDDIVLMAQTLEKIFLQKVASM

BRD2 (BD1, 2) = BRD2 (BD1, 2) (Homo sapiens, UniProt P25440); test: BROMOscan competitive ligand binding assay, BRD2 (BD1, 2)
Sequence of BRD2 (BD1, 2) (P25440 71-455 limits assumed): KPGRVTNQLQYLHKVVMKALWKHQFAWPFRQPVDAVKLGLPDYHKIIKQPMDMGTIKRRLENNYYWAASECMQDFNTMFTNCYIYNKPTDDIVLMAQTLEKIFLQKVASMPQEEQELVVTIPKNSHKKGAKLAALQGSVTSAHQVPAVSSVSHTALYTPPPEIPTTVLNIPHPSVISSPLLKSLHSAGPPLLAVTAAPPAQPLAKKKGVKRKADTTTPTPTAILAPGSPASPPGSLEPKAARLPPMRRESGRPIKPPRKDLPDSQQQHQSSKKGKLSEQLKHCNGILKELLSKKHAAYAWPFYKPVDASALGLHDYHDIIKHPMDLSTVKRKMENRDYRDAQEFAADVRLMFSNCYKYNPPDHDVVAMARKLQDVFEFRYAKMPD

BRD2 (BD2) = BRD2 (BD2) (Homo sapiens, UniProt P25440); test: BROMOscan competitive ligand binding assay, BRD2 (BD2)
Sequence of BRD2 (BD2) (P25440 344-453 limits assumed): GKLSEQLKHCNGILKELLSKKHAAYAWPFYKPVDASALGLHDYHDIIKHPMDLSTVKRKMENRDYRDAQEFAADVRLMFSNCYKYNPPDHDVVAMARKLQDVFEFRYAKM

BRD3 (BD1) = BRD3 (BD1) (Homo sapiens, UniProt Q15059); test: BROMOscan competitive ligand binding assay, BRD3 (BD1)
Sequence of BRD3 (BD1) (Q15059 34-140 limits assumed): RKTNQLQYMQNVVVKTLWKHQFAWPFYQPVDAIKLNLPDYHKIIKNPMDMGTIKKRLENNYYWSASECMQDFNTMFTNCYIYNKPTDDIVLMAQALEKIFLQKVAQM

BRD3 (BD1, 2) = BRD3 (BD1, 2) (Homo sapiens, UniProt Q15059); test: BROMOscan competitive ligand binding assay, BRD3 (BD1, 2)
Sequence of BRD3 (BD1, 2) (Q15059 24-416 limits assumed): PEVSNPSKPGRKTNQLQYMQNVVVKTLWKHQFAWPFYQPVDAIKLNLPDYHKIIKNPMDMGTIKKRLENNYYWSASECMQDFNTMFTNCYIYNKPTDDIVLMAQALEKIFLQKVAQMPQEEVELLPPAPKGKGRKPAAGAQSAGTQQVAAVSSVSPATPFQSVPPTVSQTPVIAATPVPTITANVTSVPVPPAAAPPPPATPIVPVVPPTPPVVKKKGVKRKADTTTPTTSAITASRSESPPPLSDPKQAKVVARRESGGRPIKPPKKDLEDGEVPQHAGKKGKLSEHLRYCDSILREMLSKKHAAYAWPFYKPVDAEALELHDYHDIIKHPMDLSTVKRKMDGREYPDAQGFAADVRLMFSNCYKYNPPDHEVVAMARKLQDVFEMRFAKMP

BRD3 (BD2) = BRD3 (BD2) (Homo sapiens, UniProt Q15059); test: BROMOscan competitive ligand binding assay, BRD3 (BD2)
Sequence of BRD3 (BD2) (Q15059 306-415 limits assumed): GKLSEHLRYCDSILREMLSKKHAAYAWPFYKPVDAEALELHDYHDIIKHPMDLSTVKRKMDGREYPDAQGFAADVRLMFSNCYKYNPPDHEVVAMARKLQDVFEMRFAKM

BRD4 (BD1) = BRD4 (BD1) (Homo sapiens, UniProt O60885); test: BROMOscan competitive ligand binding assay, BRD4 (BD1)
BRD4 (BD2) = BRD4 (BD2) (Homo sapiens, UniProt O60885); test: BROMOscan competitive ligand binding assay, BRD4 (BD2)
BRDT (BD1) = BRDT (BD1) (Homo sapiens, UniProt Q58F21); test: BROMOscan competitive ligand binding assay, BRDT (BD1)
BRDT (BD1, 2) = BRDT (BD1, 2) (Homo sapiens, UniProt Q58F21); test: BROMOscan competitive ligand binding assay, BRDT (BD1, 2)
BRDT (BD2) = BRDT (BD2) (Homo sapiens, UniProt Q58F21); test: BROMOscan competitive ligand binding assay, BRDT (BD2)
[3] = Kasumi 1, approximately 72 hours exposure, CellTiter-Blue

SMILES	Kd (BRD4 (BD1, 2); tandem bromodomains) [nM]	IC50 [1] [nM]	IC50 (MV4-11 cells) [nM]	Kd (CBP) [nM]	Kd (P300) [nM]	also measured
Cc1cc(-c2ccc3nc(-c4cnn(CC(C)(C)O)c4)nc(N4CCOC[C@@H]4c4ccccc4)c3c2)cn(C)c1=O [Cpd. 1, (S)-5-(2-(1-(2-hydroxy-2-methylpropyl)-1H-pyrazol-4-yl)-4-(3-phenylmorpholino)quinazolin-6-yl)-1,3-dimethylpyridin-2(1H)-one]	< 100	< 100	100 to 500	< 100	< 100	Kd (BRD4 (BD1, 2); Table 3): < 100 nM; IC50 ([2]; Kasumi 1, 72 h): < 100 nM; Kd (BRD2 (BD1)): < 100 nM; Kd (BRD2 (BD1, 2)): < 100 nM; Kd (BRD2 (BD2)): < 100 nM; Kd (BRD3 (BD1)): < 100 nM; Kd (BRD3 (BD1, 2)): < 100 nM; Kd (BRD3 (BD2)): < 100 nM; Kd (BRD4 (BD1)): < 100 nM; Kd (BRD4 (BD2)): < 100 nM; Kd (BRDT (BD1)): < 100 nM; Kd (BRDT (BD1, 2)): < 100 nM; Kd (BRDT (BD2)): < 100 nM
Cn1cc(-c2ccc3nc(-c4cnn(CC(C)(C)O)c4)nc(N4CCOC[C@@H]4c4ccccc4)c3c2)c2cc[nH]c2c1=O [Cpd. 2, (S)-4-(2-(1-(2-hydroxy-2-methylpropyl)-1H-pyrazol-4-yl)-4-(3-phenylmorpholino)quinazolin-6-yl)-6-methyl-1,6-dihydro-7H-pyrrolo[2,3-c]pyridin-7-one]	< 100	< 100	< 100	< 100	< 100	Kd (BRD4 (BD1, 2); Table 3): < 100 nM; IC50 [2, 3]: < 100 nM; Kd (BRD2 (BD1)): < 100 nM; Kd (BRD2 (BD1, 2)): < 100 nM; Kd (BRD2 (BD2)): < 100 nM; Kd (BRD3 (BD1)): < 100 nM; Kd (BRD3 (BD1, 2)): < 100 nM; Kd (BRD3 (BD2)): < 100 nM; Kd (BRD4 (BD1)): < 100 nM; Kd (BRD4 (BD2)): < 100 nM; Kd (BRDT (BD1)): < 100 nM; Kd (BRDT (BD1, 2)): < 100 nM; Kd (BRDT (BD2)): < 100 nM
Cc1cc(-c2ccc3nc(-c4cnn(CC(C)(C)O)c4)nc(N4CCOC[C@@H]4C4CC4)c3c2)cn(C)c1=O [Cpd. 3, (S)-5-(4-(3-cyclopropylmorpholino)-2-(1-(2-hydroxy-2-methylpropyl)-1H-pyrazol-4-yl)quinazolin-6-yl)-1,3-dimethylpyridin-2(1H)-one]	< 100	100 to 500	500 to 5000	100 to 500	100 to 500	
Cn1cc(-c2ccc3nc(-c4cnn(CC(C)(C)O)c4)nc(N4CCOC[C@@H]4C4CC4)c3c2)c2cc[nH]c2c1=O [Cpd. 4, (S)-4-(4-(3-cyclopropylmorpholino)-2-(1-(2-hydroxy-2-methylpropyl)-1H-pyrazol-4-yl)quinazolin-6-yl)-6-methyl-1,6-dihydro-7H-pyrrolo[2,3-c]pyridin-7-one]	< 100	< 100	< 100	< 100	< 100	
Cn1cc(-c2ccc3nc(-c4cnn(CC(C)(C)O)c4)nc(N4CCOC[C@@H]4c4ccc(F)cc4)c3c2)c2cc[nH]c2c1=O [Cpd. 5, (S)-4-(4-(3-(4-fluorophenyl)morpholino)-2-(1-(2-hydroxy-2-methylpropyl)-1H-pyrazol-4-yl)quinazolin-6-yl)-6-methyl-1,6-dihydro-7H-pyrrolo[2,3-c]pyridin-7-one]	< 100	< 100	100 to 500	< 100	< 100	IC50 [2, 3]: < 100 nM
Cc1cc(-c2ccc3nc(-c4cnn(CC(C)(C)O)c4)nc(N4CCOC[C@@H]4c4ccc(F)cc4)c3c2)cn(C)c1=O [Cpd. 6, (S)-5-(4-(3-(4-fluorophenyl)morpholino)-2-(1-(2-hydroxy-2-methylpropyl)-1H-pyrazol-4-yl)quinazolin-6-yl)-1,3-dimethylpyridin-2(1H)-one]	< 100	< 100	100 to 500	< 100	< 100	IC50 [2, 3]: < 100 nM
Cc1cc(-c2ccc3nc(N4CCO[C@H](CO)C4)nc(N4CCOC[C@@H]4C4CCCCC4)c3c2)cn(C)c1=O [Cpd. 10, 5-(4-((S)-3-cyclohexylmorpholino)-2-((S)-2-(hydroxymethyl)morpholino)quinazolin-6-yl)-1,3-dimethylpyridin-2(1H)-one]				100 to 500	100 to 500	
Cc1cc(-c2ccc3nc(N4CCO[C@H](CO)C4)nc(N4CCOC[C@@H]4c4ccccc4)c3c2)cn(C)c1=O [Cpd. 11, 5-(2-((S)-2-(hydroxymethyl)morpholino)-4-((S)-3-phenylmorpholino)quinazolin-6-yl)-1,3-dimethylpyridin-2(1H)-one]				< 100	< 100	
Cc1cc(-c2ccc3nc(-c4cnn(CC(C)(C)O)c4)nc(N4CCOC[C@@H]4C4CCCCC4)c3c2)cn(C)c1=O [Cpd. 12, (S)-5-(4-(3-cyclohexylmorpholino)-2-(1-(2-hydroxy-2-methylpropyl)-1H-pyrazol-4-yl)quinazolin-6-yl)-1,3-dimethylpyridin-2(1H)-one]				100 to 500	100 to 500	
Cn1cc(-c2ccc3nc(N4CCO[C@H](CO)C4)nc(N4CCOC[C@@H]4C4CCCCC4)c3c2)c2cc[nH]c2c1=O [Cpd. 13, 4-(4-((S)-3-cyclohexylmorpholino)-2-((S)-2-(hydroxymethyl)morpholino)quinazolin-6-yl)-6-methyl-1,6-dihydro-7H-pyrrolo[2,3-c]pyridin-7-one]				< 100	< 100	
Cn1cc(-c2ccc3nc(-c4cnn(CC(C)(C)O)c4)nc(N4CCOC[C@@H]4C4CCCCC4)c3c2)c2cc[nH]c2c1=O [Cpd. 14, (S)-4-(4-(3-cyclohexylmorpholino)-2-(1-(2-hydroxy-2-methylpropyl)-1H-pyrazol-4-yl)quinazolin-6-yl)-6-methyl-1,6-dihydro-7H-pyrrolo[2,3-c]pyridin-7-one]				< 100	100 to 500	
Cn1cc(-c2ccc3nc(N4CCO[C@H](CO)C4)nc(N4CCOC[C@@H]4c4ccc(F)cc4)c3c2)c2cc[nH]c2c1=O [Cpd. 15, 4-(4-((S)-3-(4-fluorophenyl)morpholino)-2-((S)-2-(hydroxymethyl)morpholino)quinazolin-6-yl)-6-methyl-1,6-dihydro-7H-pyrrolo[2,3-c]pyridin-7-one]				< 100	< 100	
